Drawing on patent US20240334931A1, “NEMATICIDAL COMPOSITION” (ISHIHARA SANGYO KAISHA, LTD., priority 2021, published 2024), this text covers root knot index, parasite index and injury index for 25 molecules.

Holding throughout (format): in vivo
The subject of test [1] is southern root-knot nematode (Meloidogyne incognita). Briefly: Test on effects against southern root-knot nematode: treated contaminated soil, cucumber pot test (Test Example 1 and Comparative Test). Details: key: 0: No knot formed on the root at all; 1: Knots formed to a slight degree; 2: Knots formed to a moderate degree; 3: Knots formed to a heavy degree; 4: Knots formed to the heaviest degree. How it is done: The treated soil was put into a pot, three cucumber seeds were sown, and the pot was placed in a greenhouse. Two to three weeks after the sowing of the cucumber seeds, the root knot index was determined based on the degree of formation of root knots shown in Table 5. Each composition containing Compound No. […]-192 or B-196 at a concentration of 400 ppm and the composition containing Compound No. […] [table] […] Root knot index of 2 corresponds to a state where the proportion of healthy roots is 50% or less to the entire roots, and indicates control effects to such an extent that cucumber as a crop plant to be tested cannot healthily grow.

Test [2] has as its system soybean cyst nematode (Heterodera glycines). Briefly: Test on effects against soybean cyst nematode: treated contaminated soil, soybean pot test (Test Example 3). Details: key: 0: No parasitic cyst observed on the roots at all; 1: Parasitic cyst observed to a slight degree; 2: Parasitic cyst observed to a moderate degree; 3: Parasitic cyst observed to a heavy degree; 4: Parasitic cyst observed densely on the entire roots. The note with it: 10 ml poured to 200 ml contaminated soil, about one month after sowing. How it is done: . The treated soil was put into a pot, three soybean seeds were sown, and the pot was placed in a greenhouse. About one month after the sowing of the soybean seeds, the parasite index was determined based on the cyst parasite level on the roots shown in Table 7.

In test [3] the test system is Cobb root-lesion nematode (Pratylenchus penetrans). The test can be described thus: Test on effects against Cobb root-lesion nematode: treated contaminated soil, burdock pot test (Test Example 2). Also noted: key: 0: No injury; 1: Slight injury; 2: Moderate injury; 3: Heavy injury; 4: Heaviest injury. The note with it: 800 ppm, 10 ml poured to 200 ml contaminated soil, about one month after sowing. The procedure:
. The treated soil was put into a pot, three burdock seeds were sown, and the pot was placed in a greenhouse. About one month after the sowing of the burdock seeds, the injury index was determined based on the root injury level shown in Table 6.

The mark [4] stands for this setting: 400 ppm, 10 ml poured to 200 ml contaminated soil, cucumber, two to three weeks after sowing.
The mark [5] stands for this setting: Comparative Test, active ingredient concentration 50 ppm, otherwise as Test Example 1 (cucumber).

`Cc1cccc(C(=NNC=O)C(C)(C)n2cnc(C(F)(F)F)n2)c1` [A-323, N′-(2-methyl-1-(3-methylphenyl)-2-(3-trifluoromethyl-1H-triazol-1-yl)propylidene) formhydrazide] showed a root knot index in test [1] ([…], cucumber, two to three weeks after sowing) of 1. The molecule also showed a parasite index in test [2] (800 ppm) of 1.

Regarding `CC(C)(C(=NNC=O)c1ccc(Cl)cc1)n1ccc(C(F)(F)F)n1` [A-89], the root knot index in test [1] (setting [4]) was determined as 1. Besides, in test [2] (800 ppm), the parasite index was 1.

Turning to `Cc1cccc(C(=NNC=O)C(C)(C)n2ccc(C(F)(F)F)n2)c1` [A-322], the root knot index in test [1] (setting [4]) came out at 1. This molecule also displayed a parasite index in test [2] (800 ppm) of 1.

With `COCN(C=O)N=C(c1ccccc1)C1(n2cnc(C(F)(F)F)n2)CC1` [B-24], the parasite index in test [2] (800 ppm) is 1.

On to `COCN(C=O)N=C(c1ccc(F)cc1)C(C)(C)n1ccc(C(F)(F)F)n1` [A-109], for which the parasite index in test [2] (800 ppm) is on record as 1.

For the molecule `CC(C)(C(=NNC=O)c1cccc(Cl)c1Cl)n1cnc(C(F)(F)F)n1` [A-333], in test [1] (setting [4]), the root knot index turned out to be 1. The molecule also showed a parasite index in test [2] (800 ppm) of 1.

`O=CNN=C(c1ccccc1)C1(n2cnc(C(F)(F)F)n2)CC1` (single isomer, unassigned) [B-3] registered a root knot index in test [1] (setting [4]) of 1. In test [2] (800 ppm), this molecule showed a parasite index of 1.

`CC(C)(C(=NNC=O)c1ccccc1)n1ccc(C(F)(F)F)n1` [A-1, N′-(2-methyl-1-phenyl-2-(3-trifluoromethyl-1H-pyrazol-1-yl)propylidene) formhydrazide]: the root knot index in test [1] (setting [4]) and in test [1] (setting [5]) was 1 each time. The injury index in test [3] was determined as 1. The parasite index in test [2] (800 ppm) is 1.

In turn, `CC(C)(C(=NNC=O)c1ccc(F)cc1)n1ccc(C(F)(F)F)n1` [A-107] returned a root knot index in test [1] (setting [4]) of 1. For the same molecule, the parasite index in test [2] (800 ppm) stood at 1.

In the case of `CN(C=O)N=C(c1ccc(Cl)cc1)C(C)(C)n1ccc(C(F)(F)F)n1` [A-91], the parasite index in test [2] (800 ppm) is 1.

In test [1] (setting [4]), `CC(C)(C(=NNC=O)c1ccccc1C(F)(F)F)n1ccc(C(F)(F)F)n1` [A-260] yielded a root knot index of 1. The same molecule displayed a parasite index in test [2] (400 ppm) of 1.

With `CC(C)(C(=NNC=O)c1ccccc1OC(F)(F)F)n1cnc(C(F)(F)F)n1` [A-271], in test [1] (setting [4]), the root knot index was determined as 1. Besides, in test [2] (800 ppm), the parasite index was 1.

Regarding `O=CNN=C(c1ccc(F)cc1)C1(n2cnc(C(F)(F)F)n2)CC1` (single isomer, unassigned) [B-106], the root knot index in test [1] (setting [4]) stood at 1. In test [2] (400 ppm), this molecule displayed a parasite index of 1.

Take `CC(C)(C(=NNC=O)c1cccc2c1OC(F)(F)O2)n1ccc(C#N)n1` [A-416]: in test [1] (setting [4]), the root knot index turned out to be 1. The molecule also yielded a parasite index in test [2] (800 ppm) of 1.

In test [1] (setting [4]), `CC(C)(C(=NNC=O)c1cccc(Cl)c1)n1cnc(C(F)(F)F)n1` [A-319] gave a root knot index of 1. This molecule also had a parasite index in test [2] (800 ppm) of 1.

In turn, `CC(C)(C(=NNC=O)c1cccc(F)c1)n1ccc(Br)n1` [A-279] had a root knot index in test [1] (setting [4]) of 1. The molecule further displayed a parasite index in test [2] (800 ppm) of 1.

With `CC(C)(C(=NNC=O)c1ccccc1)n1cnc(C(F)(F)F)n1` [A-2], the root knot index was found to be 1 in test [1] (setting [4]) and 0 in test [1] (setting [5]). In test [2] (800 ppm), this molecule displayed a parasite index of 1.

Molecule `COc1cccc(C(=NNC=O)C(C)(C)n2ccc(C(F)(F)F)n2)c1` [A-328] yielded a root knot index in test [1] (setting [4]) of 1. The same molecule showed a parasite index in test [2] (800 ppm) of 1.

In test [1] (setting [4]), `O=CNN=C(c1ccccc1)C1(n2ccc(C(F)(F)F)n2)CC1` [B-1, N′-(phenyl(1-(3-trifluoromethyl-1H-pyrazol-1-yl)cyclopropyl)methylene) formhydrazide] showed a root knot index of 1. For the same molecule, in test [3], the injury index was 1. The molecule further registered a parasite index in test [2] (800 ppm) of 1.

In test [1] (setting [4]), `Cc1ccccc1C(=NNC=O)C1(n2ccc(C(F)(F)F)n2)CC1` [B-196] came in with a root knot index of 1. Further, the parasite index in test [2] (800 ppm) is given as 1.

In test [2] (800 ppm), `CN(C=O)N=C(c1ccccc1)C1(n2cnc(C(F)(F)F)n2)CC1` [B-6] had a parasite index of 1.

Take `CC(C)(C(=NNC=O)c1cc(F)ccc1Cl)n1cnc(C(F)(F)F)n1` [A-352]: the root knot index in test [1] (setting [4]) amounted to 1. In addition, the parasite index in test [2] (800 ppm) was 1.

On to `CC(C)(C(=NNC=O)c1cccc(F)c1)n1ccc(C(F)(F)F)n1` [A-274], for which the root knot index in test [1] (setting [4]) came to 1. Besides, the parasite index in test [2] (800 ppm) turned out to be 1.

`CC(C)(C(=NNC=O)c1cccc(Cl)c1)n1ccc(C(F)(F)F)n1` [A-318]: the root knot index in test [1] (setting [4]) and in test [1] (setting [5]) was 1 each time. This molecule also returned an injury index in test [3] of 1. In test [2] (800 ppm), this molecule gave a parasite index of 1.

Molecule `CC(C)(C(=NNC=O)c1cccc2c1OC(F)(F)O2)n1cnc(C(F)(F)F)n1` [A-411] had a root knot index in test [1] (setting [4]) of 1. In addition, the parasite index in test [2] (800 ppm) is recorded as 1.
